Bridge positions count the residues as written; N and C are the ends. Peptide text beside a SMILES is read from it.
Test system: Fab C2
Experiment: SPR epitope mapping: binding of epitope I peptide variants to immobilized Fab C2
Set-up: species or system mouse; Ka, binding to Fab C2: unit not given here
Conditions: for Ka, binding to Fab C2 / Kd, binding to Fab C2: Fab C2 immobilized on CM5 chip, 25°C; for Kd: read-out: KD, binding to Fab C2, Fab C2 immobilized on CM5 chip, peptides 125 nM to 5 μM, HBS buffer, 25°C, NB = no binding
Method: All SPR analyses were performed on a Biacore 3000 instrument from GE Healthcare, using CM5 sensor chips and the HBS buffer certified for use with this instrument (20 mM HEPES, 0.15 M NaCl, pH 7.2, 0.005% polysorbate 20), at 25°C. Immobilization was carried out by means of the canonical amine-coupling chemistry using the surface immobilization wizard procedure operating at 5 μl/min. Channels were activated with a mixture of 1-ethyl-3-(3-dimethylaminopropyl)-carbodiimide and N-hydroxysuccinimide for 7 min; then, the ligand, which had been appropriately diluted in the preselected sodium acetate buffer, was coupled until a typical level of 500 to 600 response units (RU) was achieved. The remaining active ester groups were blocked with 1 M ethanolamine HCl, pH 8.5. […] The same procedure was applied to prepare an sE2-functionalized sensor chip. An IgG1 isotype-matched antibody was used as a negative control at a concentration of 5.0 μM. […] An underivatized surface was prepared on every sensor chip and used as a blank control. All analyses were carried out at a flow rate of 20 μl/min, and a constant volume of 60 μl of protein or peptide solution appropriately diluted in the HBS running buffer was injected.
For every analysis, experimental sensorgrams were aligned, the blank signal was subtracted, and the sensorgrams were overlapped. All mathematical manipulations and fitting of the data were performed using BIAevaluation (version 4.1) software (GE Healthcare).
To further investigate which peptide residues were mostly involved in the binding with the antibodies, we designed and prepared a panel of alanine-mutated cyclic peptides (Table 4). […] All peptides were tested at concentrations ranging from 125 nM to 5 μM.

Compound | Ka, binding to Fab C2 (peptides 125 nM to 5 μM) | Kd, binding to Fab C2 (peptides 125 nM to 5 μM) | affinity/binding to Fab C2 relative to wild type (Fab C2 immobilized, peptides 125 nM to 5 μM) | Kd
CC[C@H](C)[C@@H]1NC(=O)[C@H](CC(C)C)NC(=O)[C@H](CCC(N)=O)NC(=O)[C@@H](NC(=O)[C@H](CCCCN)NC(=O)[C@H](CCCCN)NC(C)=O)CSSC[C@@H](C(N)=O)NC(=O)[C@H](C)NC(=O)[C@H](C)NC(=O)[C@H](C)NC(=O)[C@H](CO)NC(=O)CNC(=O)[C@H](CC(N)=O)NC(=O)[C@H]([C@@H](C)O)NC(=O)[C@H](CC(N)=O)NC1=O [C-epitope I mutant IV] (Ac-KKCQLINTNGSAAAC-NH2; disulfide 3-15; N-terminus and C-terminus assumed) | 0 | 0 M⁻¹ s⁻¹ | abolished | > 5 µM
CC[C@H](C)[C@@H]1NC(=O)[C@H](CC(C)C)NC(=O)[C@H](CCC(N)=O)NC(=O)[C@@H](NC(=O)[C@H](CCCCN)NC(=O)[C@H](CCCCN)NC(C)=O)CSSC[C@@H](C(N)=O)NC(=O)[C@H]([C@@H](C)CC)NC(=O)[C@H](Cc2c[nH]cn2)NC(=O)[C@H](Cc2c[nH]c3ccccc23)NC(=O)[C@H](CO)NC(=O)CNC(=O)[C@H](C)NC(=O)[C@H](C)NC(=O)[C@H](C)NC1=O [C-epitope I mutant II] (Ac-KKCQLIAAAGSWHIC-NH2; disulfide 3-15; N-terminus and C-terminus assumed) | 3200 s⁻¹ | 4.73e-05 M⁻¹ s⁻¹ |  | 
CC[C@H](C)[C@@H]1NC(=O)[C@H](Cc2c[nH]cn2)NC(=O)[C@H](Cc2c[nH]c3ccccc23)NC(=O)[C@H](CCC(=O)O)NC(=O)[C@H](CCC(=O)O)NC(=O)[C@H](CC(N)=O)NC(=O)[C@H]([C@@H](C)O)NC(=O)[C@H](CC(N)=O)NC(=O)[C@H]([C@@H](C)CC)NC(=O)[C@H](CC(C)C)NC(=O)[C@H](CCC(N)=O)NC(=O)[C@@H](NC(=O)[C@H](CCCCN)NC(=O)[C@H](CCCCN)NC(C)=O)CSSC[C@@H](C(N)=O)NC1=O [C-epitope I mutant III] (Ac-KKCQLINTNEEWHIC-NH2; disulfide 3-15; N-terminus and C-terminus assumed) | 16200 s⁻¹ | 0.0754 M⁻¹ s⁻¹ |  | 
CC[C@H](C)[C@H](NC(=O)[C@H](Cc1c[nH]cn1)NC(=O)[C@H](Cc1c[nH]c2ccccc12)NC(=O)[C@H](CO)NC(=O)CNC(=O)[C@H](CC(N)=O)NC(=O)[C@@H](NC(=O)[C@H](CC(N)=O)NC(=O)[C@@H](NC(=O)[C@H](CC(C)C)NC(=O)[C@H](CCC(N)=O)NC(=O)[C@H](CSC)NC(=O)[C@H](CCCCN)NC(=O)[C@H](CCCCN)NC(C)=O)[C@@H](C)CC)[C@@H](C)O)C(=O)N[C@@H](CSC)C(N)=O [L-epitope I] (Ac-KKC(Me)QLINTNGSWHIC(Me)-NH2; N-terminus and C-terminus assumed) | 0 | 0 M⁻¹ s⁻¹ |  | > 5 µM
CC[C@H](C)[C@@H]1NC(=O)[C@H](Cc2c[nH]cn2)NC(=O)[C@H](Cc2c[nH]c3ccccc23)NC(=O)[C@H](CO)NC(=O)CNC(=O)[C@H](CC(N)=O)NC(=O)[C@H]([C@@H](C)O)NC(=O)[C@H](CC(N)=O)NC(=O)[C@H](C)NC(=O)[C@H](C)NC(=O)[C@H](C)NC(=O)[C@@H](NC(=O)[C@H](CCCCN)NC(=O)[C@H](CCCCN)NC(C)=O)CSSC[C@@H](C(N)=O)NC1=O [C-epitope I mutant I] (Ac-KKCAAANTNGSWHIC-NH2; disulfide 3-15; N-terminus and C-terminus assumed) | 1.22e+06 s⁻¹ | 0.553 M⁻¹ s⁻¹ |  | 

From paper PMC4794675, “Generation and Characterization of Monoclonal Antibodies against a Cyclic Variant of Hepatitis C Virus E2 Epitope 412-422” (Journal of Virology, 2016)
